From patent US12581252B2, “Substituted pyrrolo[3,4-b]pyridines as PI3K-α inhibitors” (Relay Therapeutics, Inc., priority 2020, dated 2026) come the findings set out here.

pIC50: −log10 of the molar value. Bounds are passed on as bounds.

A word on the pIC50: it is −log10 of the IC50, conventionally taken in molar units. Read a low pIC50 as a high IC50.

The target of the assay is H1047R PIK3CA enzyme (Homo sapiens, UniProt P42336, H1047R). Kind of assay: ADP-Glo Biochemical PIK3CA Kinase Assay.
Chain of H1047R PIK3CA enzyme (P42336 whole entry H1047R): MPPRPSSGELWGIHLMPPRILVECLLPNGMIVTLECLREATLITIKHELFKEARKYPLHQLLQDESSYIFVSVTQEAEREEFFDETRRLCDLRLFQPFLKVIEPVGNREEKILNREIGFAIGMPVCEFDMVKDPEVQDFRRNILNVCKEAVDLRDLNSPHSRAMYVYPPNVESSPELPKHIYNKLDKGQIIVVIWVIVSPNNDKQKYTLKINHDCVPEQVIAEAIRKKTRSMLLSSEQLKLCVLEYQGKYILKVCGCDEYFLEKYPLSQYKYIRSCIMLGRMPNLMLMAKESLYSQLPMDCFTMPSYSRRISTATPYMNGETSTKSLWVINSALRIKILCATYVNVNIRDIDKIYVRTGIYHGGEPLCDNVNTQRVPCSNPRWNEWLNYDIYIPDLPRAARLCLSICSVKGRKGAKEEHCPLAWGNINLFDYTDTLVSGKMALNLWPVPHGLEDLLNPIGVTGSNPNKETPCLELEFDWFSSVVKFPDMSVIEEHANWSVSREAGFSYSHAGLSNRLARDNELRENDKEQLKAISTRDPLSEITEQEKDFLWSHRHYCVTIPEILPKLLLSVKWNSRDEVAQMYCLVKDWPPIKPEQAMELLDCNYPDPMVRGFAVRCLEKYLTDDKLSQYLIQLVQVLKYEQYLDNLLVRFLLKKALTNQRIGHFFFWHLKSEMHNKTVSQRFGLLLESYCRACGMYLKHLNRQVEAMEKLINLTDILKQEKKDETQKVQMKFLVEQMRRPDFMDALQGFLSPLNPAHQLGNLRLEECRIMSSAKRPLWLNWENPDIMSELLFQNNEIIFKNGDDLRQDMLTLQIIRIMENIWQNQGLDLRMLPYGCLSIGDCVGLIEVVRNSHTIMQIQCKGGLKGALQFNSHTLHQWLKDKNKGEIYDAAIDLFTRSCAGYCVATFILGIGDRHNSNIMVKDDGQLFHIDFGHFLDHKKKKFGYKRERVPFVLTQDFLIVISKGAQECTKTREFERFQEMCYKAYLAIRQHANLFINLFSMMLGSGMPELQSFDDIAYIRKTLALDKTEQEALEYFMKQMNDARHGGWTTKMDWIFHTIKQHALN
Chain of H1047R PIK3CA enzyme (P27986 whole entry partner): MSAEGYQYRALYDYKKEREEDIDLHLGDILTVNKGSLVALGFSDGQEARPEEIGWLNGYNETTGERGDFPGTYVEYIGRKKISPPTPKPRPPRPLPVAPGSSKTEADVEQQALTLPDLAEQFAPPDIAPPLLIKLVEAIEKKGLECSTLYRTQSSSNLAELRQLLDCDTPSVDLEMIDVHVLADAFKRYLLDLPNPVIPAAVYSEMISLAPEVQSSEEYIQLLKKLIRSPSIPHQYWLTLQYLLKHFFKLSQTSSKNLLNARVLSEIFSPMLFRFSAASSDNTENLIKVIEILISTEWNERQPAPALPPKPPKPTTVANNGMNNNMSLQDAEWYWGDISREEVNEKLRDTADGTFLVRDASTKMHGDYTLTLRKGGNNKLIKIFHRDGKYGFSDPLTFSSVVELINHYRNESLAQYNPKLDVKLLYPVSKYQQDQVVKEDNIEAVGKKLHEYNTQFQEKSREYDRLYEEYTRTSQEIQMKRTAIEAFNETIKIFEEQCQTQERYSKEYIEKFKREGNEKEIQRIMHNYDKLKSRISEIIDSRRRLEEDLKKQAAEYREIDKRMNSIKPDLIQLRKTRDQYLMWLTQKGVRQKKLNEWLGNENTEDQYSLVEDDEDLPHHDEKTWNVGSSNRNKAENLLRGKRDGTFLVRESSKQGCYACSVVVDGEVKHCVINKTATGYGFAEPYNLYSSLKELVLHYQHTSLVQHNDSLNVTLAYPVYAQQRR
Turning to `O=C1N[C@@H](c2cc(F)ccc2Cl)c2c(NC(=O)N3C[C@](O)(C(F)(F)F)c4cc(F)ccc43)ccc(Cl)c21` (single isomer, unassigned) [Compound I-2619], the negative-log IC50 (pIC50) is 5.00 to 6.00.
To `O=C1N[C@H](c2cc(F)ccc2Cl)c2c(NC(=O)N3C[C@@](O)(C(F)(F)F)c4cc(F)ccc43)ccc(Cl)c21` (single isomer, unassigned) [Compound I-2620] belongs 5.00 to 6.00; to `O=C1N[C@@H](c2cc(F)ccc2Cl)c2c(NC(=O)N3C[C@@](O)(C(F)(F)F)c4cc(F)ccc43)ccc(Cl)c21` (single isomer, unassigned) [Compound I-2621], 6.00 to 6.30.
With `N#CCc1cc(NC(=O)N2C[C@@](O)(C(F)(F)F)c3cc(F)ccc32)c2c(c1)C(=O)N[C@H]2c1cc(F)ccc1Cl` (single isomer, unassigned) [Compound I-2624], the pIC50 is 5.00 to 6.00.
Next, `N#CCc1cc(NC(=O)N2C[C@](O)(C(F)(F)F)c3cc(F)ccc32)c2c(c1)C(=O)N[C@H]2c1cc(F)ccc1Cl` (single isomer, unassigned) [Compound I-2625]: 5.00 to 6.00; `N#CCc1cc(NC(=O)N2C[C@@](O)(C(F)(F)F)c3cc(F)ccc32)c2c(c1)C(=O)N[C@@H]2c1cc(F)ccc1Cl` (single isomer, unassigned) [Compound I-2626]: 6.00 to 6.30; `O=C1N[C@@H](c2cc(F)ccc2Cl)c2c(NC(=O)N3C[C@@](O)(C(F)(F)F)c4cc(F)ccc43)cc(F)cc21` (single isomer, unassigned) [Compound I-2628]: 5.00 to 6.00.
Consider `O=C1N[C@H](c2cc(F)ccc2Cl)c2c(NC(=O)N3C[C@@](O)(C(F)(F)F)c4cc(F)ccc43)cc(F)cc21` (single isomer, unassigned) [Compound I-2629], for which the pIC50 is 5.00 to 6.00.
To `O=C1N[C@H](c2cc(F)ccc2Cl)c2c(NC(=O)N3C[C@](O)(C(F)(F)F)c4cc(F)ccc43)cc(F)cc21` (single isomer, unassigned) [Compound I-2631] belongs no less than 7.00; to `O=C1N[C@H](c2cc(F)ccc2Cl)c2c(NC(=O)N3C[C@@](O)(C(F)F)c4cc(F)ccc43)cc(F)cc21` (single isomer, unassigned) [Compound I-2632], 5.00 to 6.00.
To `O=C1N[C@@H](c2cc(F)ccc2Cl)c2c(NC(=O)N3C[C@@](O)(C(F)F)c4cc(F)ccc43)cc(F)cc21` (single isomer, unassigned) [Compound I-2633] belongs 5.00 to 6.00.
Turning to `O=C1N[C@H](c2cc(F)ccc2Cl)c2c(NC(=O)N3C[C@](O)(C(F)F)c4cc(F)ccc43)cc(F)cc21` (single isomer, unassigned) [Compound I-2634], the pIC50 is 5.00 to 6.00.
To `Cc1cn(-c2cc(NC(=O)N3C[C@@](O)(C(F)(F)F)c4cc(F)ccc43)c3c(c2)C(=O)N[C@@H]3c2cc(F)ccc2Cl)cn1` (single isomer, unassigned) [Compound I-2636] belongs 5.00 to 6.00; to `Cc1cn(-c2cc(NC(=O)N3C[C@@](O)(C(F)(F)F)c4cc(F)ccc43)c3c(c2)C(=O)N[C@H]3c2cc(F)ccc2Cl)cn1` (single isomer, unassigned) [Compound I-2638], 5.00 to 6.00; to `Cc1cn(-c2cc(NC(=O)N3C[C@](O)(C(F)(F)F)c4cc(F)ccc43)c3c(c2)C(=O)N[C@H]3c2cc(F)ccc2Cl)cn1` (single isomer, unassigned) [Compound I-2639], 4.00 to 5.00.
Next, `CNc1cc(NC(=O)N2C[C@](O)(C(F)(F)F)c3cc(F)ccc32)c2c(c1)C(=O)N[C@@H]2c1cc(F)ccc1Cl` (single isomer, unassigned) [Compound I-2641]: 6.00 to 6.30; `CNc1cc(NC(=O)N2C[C@@](O)(C(F)(F)F)c3cc(F)ccc32)c2c(c1)C(=O)N[C@H]2c1cc(F)ccc1Cl` (single isomer, unassigned) [Compound I-2642]: 6.30 to 7.00.
Next, `CNc1cc(NC(=O)N2C[C@](O)(C(F)(F)F)c3cc(F)ccc32)c2c(c1)C(=O)N[C@H]2c1cc(F)ccc1Cl` (single isomer, unassigned) [Compound I-2643]: 5.00 to 6.00.
Regarding `CNc1cc(NC(=O)N2C[C@@](O)(C(F)(F)F)c3cc(F)ccc32)c2c(n1)C(=O)N[C@@H]2c1cc(F)ccc1Cl` (single isomer, unassigned) [Compound I-2645], the pIC50 was 5.00 to 6.00.
`CNc1cc(NC(=O)N2C[C@@](O)(C(F)(F)F)c3cc(F)ccc32)c2c(n1)C(=O)N[C@H]2c1cc(F)ccc1Cl` (single isomer, unassigned) [Compound I-2646] showed a pIC50 of 6.00 to 6.30.
To `CNc1cc(NC(=O)N2C[C@](O)(C(F)(F)F)c3cc(F)ccc32)c2c(n1)C(=O)N[C@H]2c1cc(F)ccc1Cl` (single isomer, unassigned) [Compound I-2647] belongs 6.30 to 7.00; to `CC(C)(CN)n1cc(-c2cc(NC(=O)N3C[C@](O)(C(F)(F)F)c4cc(F)ccc43)c3c(c2)C(=O)N[C@@H]3c2cc(F)ccc2Cl)cn1` (single isomer, unassigned) [Compound I-2650], 6.00 to 6.30.
To `CC(C)(CN)n1cc(-c2cc(NC(=O)N3C[C@@](O)(C(F)(F)F)c4cc(F)ccc43)c3c(c2)C(=O)N[C@H]3c2cc(F)ccc2Cl)cn1` (single isomer, unassigned) [Compound I-2651] belongs 5.00 to 6.00; to `CC(C)(CN)n1cc(-c2cc(NC(=O)N3C[C@](O)(C(F)(F)F)c4cc(F)ccc43)c3c(c2)C(=O)N[C@H]3c2cc(F)ccc2Cl)cn1` (single isomer, unassigned) [Compound I-2652], 5.00 to 6.00; to `O=C1N[C@H](c2cc(F)ccc2Cl)c2c(NC(=O)N3C[C@](O)(C(F)(F)F)c4cc(F)ccc43)cc(C3COC3)cc21` (single isomer, unassigned) [Compound I-2653], 4.00 to 5.00.
`O=C1N[C@H](c2cc(F)ccc2Cl)c2c(NC(=O)N3C[C@@](O)(C(F)(F)F)c4cc(F)ccc43)cc(C3COC3)cc21` (single isomer, unassigned) [Compound I-2654] gave a pIC50 of 5.00 to 6.00.
To `O=C1N[C@@H](c2cc(F)ccc2Cl)c2c(NC(=O)N3C[C@@](O)(C(F)(F)F)c4cc(F)ccc43)cc(C3COC3)cc21` (single isomer, unassigned) [Compound I-2656] belongs 6.00 to 6.30.
Next, `CC1(Cc2cc(NC(=O)N3C[C@@](O)(C(F)(F)F)c4cc(F)ccc43)c3c(c2)C(=O)N[C@@H]3c2cc(F)ccc2Cl)COC1` (single isomer, unassigned) [Compound I-2658]: 5.00 to 6.00; `CC1(Cc2cc(NC(=O)N3C[C@](O)(C(F)(F)F)c4cc(F)ccc43)c3c(c2)C(=O)N[C@H]3c2cc(F)ccc2Cl)COC1` (single isomer, unassigned) [Compound I-2659]: 5.00 to 6.00.
The compound `CC1(Cc2cc(NC(=O)N3C[C@@](O)(C(F)(F)F)c4cc(F)ccc43)c3c(c2)C(=O)N[C@H]3c2cc(F)ccc2Cl)COC1` (single isomer, unassigned) [Compound I-2660] gave a pIC50 of 4.00 to 5.00.
To `Cc1nccn1-c1cc(NC(=O)N2C[C@](O)(C(F)(F)F)c3cc(F)ccc32)c2c(c1)C(=O)N[C@@H]2c1cc(F)ccc1Cl` (single isomer, unassigned) [Compound I-2662] belongs 5.00 to 6.00.
To `Cc1nccn1-c1cc(NC(=O)N2C[C@@](O)(C(F)(F)F)c3cc(F)ccc32)c2c(c1)C(=O)N[C@H]2c1cc(F)ccc1Cl` (single isomer, unassigned) [Compound I-2663] belongs 5.00 to 6.00; to `Cc1nccn1-c1cc(NC(=O)N2C[C@](O)(C(F)(F)F)c3cc(F)ccc32)c2c(c1)C(=O)N[C@H]2c1cc(F)ccc1Cl` (single isomer, unassigned) [Compound I-2664], 5.00 to 6.00; to `O=C1N[C@H](c2cc(F)ccc2Cl)c2c(NC(=O)N3C[C@](O)(C(F)(F)F)c4cc(F)ccc43)cc(N3CCCC3=O)cc21` (single isomer, unassigned) [Compound I-2666], 5.00 to 6.00.
Compound `O=C1N[C@@H](c2cc(F)ccc2Cl)c2c(NC(=O)N3C[C@@](O)(C(F)(F)F)c4cc(F)ccc43)cc(N3CCCC3=O)cc21` (single isomer, unassigned) [Compound I-2667] had a pIC50 of 5.00 to 6.00.
`O=C1N[C@@H](c2cc(F)ccc2Cl)c2c(NC(=O)N3C[C@](O)(C(F)(F)F)c4cc(F)ccc43)cc(N3CCCC3=O)cc21` (single isomer, unassigned) [Compound I-2668] had a pIC50 of 4.00 to 5.00.
To `N#Cc1cnn(Cc2cc(NC(=O)N3C[C@@](O)(C(F)(F)F)c4cc(F)ccc43)c3c(c2)C(=O)N[C@@H]3c2cc(F)ccc2Cl)c1` (single isomer, unassigned) [Compound I-2670] belongs 6.00 to 6.30; to `N#Cc1cnn(Cc2cc(NC(=O)N3C[C@](O)(C(F)(F)F)c4cc(F)ccc43)c3c(c2)C(=O)N[C@H]3c2cc(F)ccc2Cl)c1` (single isomer, unassigned) [Compound I-2671], 6.00 to 6.30; to `N#Cc1cnn(Cc2cc(NC(=O)N3C[C@@](O)(C(F)(F)F)c4cc(F)ccc43)c3c(c2)C(=O)N[C@H]3c2cc(F)ccc2Cl)c1` (single isomer, unassigned) [Compound I-2672], 4.00 to 5.00.
Next, `O=C1N[C@H](c2cc(F)ccc2Cl)c2c(NC(=O)N3C[C@](O)(C(F)(F)F)c4cc(F)ccc43)cc(N3CCOC3=O)cc21` (single isomer, unassigned) [Compound I-2674]: 5.00 to 6.00; `O=C1N[C@@H](c2cc(F)ccc2Cl)c2c(NC(=O)N3C[C@@](O)(C(F)(F)F)c4cc(F)ccc43)cc(N3CCOC3=O)cc21` (single isomer, unassigned) [Compound I-2675]: 5.00 to 6.00.
In the case of `O=C1N[C@@H](c2cc(F)ccc2Cl)c2c(NC(=O)N3C[C@](O)(C(F)(F)F)c4cc(F)ccc43)cc(N3CCOC3=O)cc21` (single isomer, unassigned) [Compound I-2676], the pIC50 is 4.00 to 5.00.
To `CNc1cc(NC(=O)N2C[C@](O)(C(F)F)c3cc(F)ccc32)c2c(c1)C(=O)N[C@H]2c1cc(F)ccc1Cl` (single isomer, unassigned) [Compound I-2678] belongs 5.00 to 6.00.
To `CNc1cc(NC(=O)N2C[C@@](O)(C(F)F)c3cc(F)ccc32)c2c(c1)C(=O)N[C@@H]2c1cc(F)ccc1Cl` (single isomer, unassigned) [Compound I-2679] belongs 4.00 to 5.00.
